Data set [1] in a line: Administration of 2 times 15 mg of efletirizine in solution with a 12-hour interval. Type of data set: in vivo, healthy volunteers. As to conditions: human, plasma, oral, 2 times 15 mg in solution; for Cmax / Tmax: 15 mg. The method, then:
Two times 15 mg of efletirizine in solution were administered to 12 healthy volunteers, with a 12-hour interval.

A short description of data set [2]: Administration of 60 mg IR efletirizine gelatin capsule: influence of a meal. As to conditions: for AUC / Cmax / Tmax: human, in vivo, oral, 60 mg, 60 mg gelatin capsule. It counts as in vivo, patients. As for the experimental part:
A gelatin capsule containing 60 mg of efletirizine was administered to 20 fasting patients and to 22 patients who had eaten a standardized fatty meal beforehand.

Data set [3] in a line: Crossover trial: 10 mg IR solution plus 25 mg PR tablet J, fasting or after a meal, vs 15 mg IR solution twice. Type of data set: in vivo, human volunteers. As to conditions: human, plasma, oral, IR solution 15 mg × 2, 12-hour interval; for Cmax / Tmax: 15 mg. As for the experimental part: In a crossover trial, 12 volunteers received 3 types of treatments: • 10 mg of IR efletirizine in the form of a solution and one PR tablet of 25 mg of efletirizine (J) while fasting; • 10 mg of IR efletirizine in the form of a solution and one PR tablet of 25 mg of efletirizine (J) after a standardized fatty meal; • 15 mg of IR efletirizine in the form of a solution, taken twice with a 12-hour interval
The first 3 components are granulated. The last 3 are then added and the mixture is compressed. The tablet J is a repeat of the composition of the tablet F, to which a granulating agent, Povidone K30™, has been added.

Data set [4] addresses histamine H1 receptor (Homo sapiens, UniProt P35367). As to conditions: background statement; cited from earlier work.
Where [5] appears, read: second dose, read-out: Cmax (2).
The mark [6] stands for this setting: second dose, read-out: tmax (2).
[7] abbreviates: 60 mg IR gelatin capsule, after a meal vs fasting.
The mark [8] stands for this setting: after a standardized fatty meal.

The source of these data is patent US20050171119A1, “Pharmaceutical formulations with modified release” (UCB, S.A., priority 2002, published 2005).

Chain of histamine H1 receptor (P35367 whole entry, species assumed): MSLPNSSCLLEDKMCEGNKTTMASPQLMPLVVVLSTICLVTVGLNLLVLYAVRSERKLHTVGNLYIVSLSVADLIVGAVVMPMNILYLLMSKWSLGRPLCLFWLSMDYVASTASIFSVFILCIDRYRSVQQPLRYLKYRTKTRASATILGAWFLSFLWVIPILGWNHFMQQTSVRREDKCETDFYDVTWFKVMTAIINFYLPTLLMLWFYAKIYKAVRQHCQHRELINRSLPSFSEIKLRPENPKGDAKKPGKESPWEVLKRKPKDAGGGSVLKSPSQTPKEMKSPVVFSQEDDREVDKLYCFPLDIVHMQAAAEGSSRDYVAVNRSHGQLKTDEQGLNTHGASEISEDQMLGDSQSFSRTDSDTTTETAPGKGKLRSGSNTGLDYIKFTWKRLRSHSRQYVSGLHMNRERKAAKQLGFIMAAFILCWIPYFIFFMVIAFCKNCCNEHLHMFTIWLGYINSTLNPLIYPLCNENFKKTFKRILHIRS

One may read the Cmax as the highest concentration seen after dosing. What is called Tmax is the time from dosing to the highest level. By AUC is commonly meant concentration integrated over time. For `O=C(O)COCCN1CCN(C(c2ccc(F)cc2)c2ccc(F)cc2)CC1` [efletirizine, 2-[2-[4-[Bis(4-fluorophenyl)methyl]-1-piperazinyl]-ethoxy]acetic acid], the highest concentration (Cmax) is 0.307 µg/mL in data set [1] (first dose, read-out: Cmax(1)); 0.305 µg/mL in data set [1] (setting [5]); 0.855 µg/mL in data set [2] (setting [8]); 1.47 µg/mL in data set [2] (fasting); 0.307 µg/mL in data set [3] (first dose, read-out: Cmax (1)); 0.305 µg/mL in data set [3] (setting [5]). Moreover, the time of peak concentration (Tmax) is 0.6 h in data set [1] (first dose, read-out: tmax (1)); 12.6 h in data set [1] (setting [6]); 3.03 h in data set [2] (setting [8]); 0.77 h in data set [2] (fasting); 0.6 h in data set [3] (first dose, read-out: tmax (1)); 12.6 h in data set [3] (setting [6]). The exposure (AUC) in data set [1] was determined as 2.8 µg·h/mL; in data set [2] (setting [8]) it was 5.78 µg·h/mL; in data set [2] (fasting), 6.35 µg·h/mL; in data set [3], 2.8 µg·h/mL. For the same compound, in data set [2] (setting [7]), the “decrease of Cmax by having a meal” value was found to be 42%. Moreover, the “influence of a meal on bioavailability” value in data set [2] (setting [7]) is “decreased”. Also, the “affinity in vitro for H1 receptors” value in data set [4] is “great affinity”. In addition, in data set [4], the “selectivity in vitro for H1 receptors” value is recorded as “great selectivity”.
